In patent US9169241B2, “Quinolinyloxyphenylsulfonamides” (Max-Planck-Gesellschaft Zur Forderung der Wissenschaften …, priority 2009, dated 2015) one finds melting point and IC50 data, which are given here for seven compounds.

Data set [1] concerns Hs578T. Description: Cell vitality assay (ATP assay, CellTiter-Glo). Particulars: Homo sapiens, Hs-578T; HS578T cell line, 72 h; Table Ib; read-out: IC50 ATP-Assay HS578T after 72 h. The format is cell-based. In outline: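 ATP-based luminescence (CellTiter-Glo) after 72 h exposure of 1000 cells/well to seven compound concentrations from 0.195 to 12.5 μM. IC50 defined as concentration reducing ATP to 50% of DMSO control.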

Data set [2] relates to Hs578T. Description: Matrigel outgrowth assay/branching assay. Particulars: Homo sapiens, Hs-578T; HS578T cell line; Table Ib; read-out: Total branching inhibition in Matrigel HS578T. The format is cell-based. In outline: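 Invasive outgrowth into a 3 mg/ml Matrigel gel is judged from images taken after 48, 72 and 96 h of exposure to 3.125, 1.56 or 0.78 μM compound, with DMSO as control. Positive means total inhibition of branching.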

Data set [3] has as its system Hs578T. Description: Wound healing migration assay. The conditions noted are these: Homo sapiens, Hs-578T; HS578T cell line; Table Ib. The data set is classed as cell-based. The gist of the method: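 Compound exposure at 12.5, 6.25 and 3.125 μM, with DMSO control, on scratch-wounded monolayers (150000 cells/24 well, overnight). Wound closure imaged by microscopy, fixed with crystal violet after 48 h or 72 h depending on cell line; IC50 is the concentration giving 50% wound size between t0 and t48/t72.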

Data set [4] addresses T1, wild type AXL (wtAXL) receptor tyrosine kinase (Homo sapiens, UniProt P30530).
T1 construct: WtAXL cDNA was cloned into vector pLXSN(ESK) and transfected into Phoenix E packaging cells; expressed in transfected cells; host or cells: NIH3T3 N7 (mouse fibroblasts), retrovirally infected, clone 22
T1 sequence (P30530 26-894): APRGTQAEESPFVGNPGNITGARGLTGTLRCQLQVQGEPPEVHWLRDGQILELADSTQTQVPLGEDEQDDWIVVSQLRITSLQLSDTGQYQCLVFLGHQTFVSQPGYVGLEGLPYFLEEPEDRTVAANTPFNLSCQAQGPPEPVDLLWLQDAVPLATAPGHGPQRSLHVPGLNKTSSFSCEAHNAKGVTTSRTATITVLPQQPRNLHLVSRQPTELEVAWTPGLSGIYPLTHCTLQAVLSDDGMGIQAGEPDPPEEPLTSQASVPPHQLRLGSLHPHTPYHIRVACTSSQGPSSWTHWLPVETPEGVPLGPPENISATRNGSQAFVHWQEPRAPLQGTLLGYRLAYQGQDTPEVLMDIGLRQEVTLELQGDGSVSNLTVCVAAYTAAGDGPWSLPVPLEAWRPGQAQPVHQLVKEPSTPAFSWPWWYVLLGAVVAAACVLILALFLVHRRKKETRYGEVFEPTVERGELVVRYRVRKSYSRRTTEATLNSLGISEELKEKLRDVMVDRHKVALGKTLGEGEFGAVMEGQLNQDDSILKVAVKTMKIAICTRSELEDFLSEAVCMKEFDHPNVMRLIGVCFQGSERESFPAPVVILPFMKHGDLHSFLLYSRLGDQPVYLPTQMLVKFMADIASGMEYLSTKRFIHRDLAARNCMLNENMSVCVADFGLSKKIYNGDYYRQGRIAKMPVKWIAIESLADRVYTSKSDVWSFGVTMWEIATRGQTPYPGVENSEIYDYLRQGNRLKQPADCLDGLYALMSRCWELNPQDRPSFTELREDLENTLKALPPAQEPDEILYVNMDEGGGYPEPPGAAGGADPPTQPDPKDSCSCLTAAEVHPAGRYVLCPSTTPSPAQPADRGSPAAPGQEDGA
Description: NIH-3T3-AXL cellular kinase assay (pY-AXL-ELISA). The format is cell-based. Particulars: NIH-3T3-AXL (clone 22) cells, serum depleted, compounds 1 h; Table Ia. The gist of the method: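 Phospho-AXL was quantified by ELISA in lysates (4G10-biotin, streptavidin-AP, AttoPhos, 430/560 nm read at 90 min). The cells were monoclonal NIH3T3 lines stably transduced with human wtAXL, exposed to serial compound dilutions for 1 h before lysis.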
On the technique in general: An ELISA detects its analyte on a solid surface through an enzyme-linked reagent.

SMILES strings stand for the structures. Where only a bound is given, the exact number is not on record here.

A word on the melting point: it is the temperature, or range, at which the solid turns liquid.

`COc1cc2c(Oc3ccc(Cl)c(NS(=O)(=O)c4cc(Cl)ccc4Cl)c3)ccnc2cc1OCCCN1CCC(C)CC1` [Example 197, 2,5-Dichloro-N-(2-chloro-5-{6-methoxy-7-[3-(4-methyl-piperidin-1-yl)-propoxy]-quinolin-4-yloxy}-phenyl)-benzenesulfonamide] yielded a melting point of 223 to 224 °C. In addition, the IC50 in the data set on Hs578T [1] lay in the range of 12.5 to 50 µM. Besides, the IC50 in the data set with Hs578T [2] fell in the range of 10 to 25 µM. For the same compound, the IC50 in the data set with Hs578T [3] was 12.5 to 50 µM. In data set [4], this compound returned an IC50 of 0.5 to 3 µM.
Compound `COc1cc2c(Oc3ccc(Cl)c(NS(=O)(=O)c4c(Cl)cccc4Cl)c3)ccnc2cc1OCCCN1CCC(C)CC1` [Example 198, 2,6-Dichloro-N-(2-chloro-5-{6-methoxy-7-[3-(4-methyl-piperidin-1-yl)-propoxy]-quinolin-4-yloxy}-phenyl)-benzenesulfonamide] came in with a melting point of 206 to 208 °C. Moreover, in the data set on Hs578T [1], the IC50 was 12.5 to 50 µM. Further, in the data set with Hs578T [2], the IC50 was in the range of 10 to 25 µM. Besides, the IC50 in the data set with Hs578T [3] fell in the range of 12.5 to 50 µM. The compound also displayed an IC50 in data set [4] of 0.5 to 3 µM.
`COc1ccc2nccc(Oc3ccc(NS(=O)(=O)c4cc(F)ccc4F)cc3F)c2c1` [Example 199, 2,5-Difluoro-N-[3-fluoro-4-(6-methoxy-quinolin-4-yloxy)-phenyl]-benzenesulfonamide] showed a melting point of 249 to 250 °C. Moreover, in the data set with Hs578T [1], the IC50 is 12.5 to 50 µM. Further, the IC50 in the data set with Hs578T [2] fell in the range of 10 to 25 µM. This compound showed an IC50 in the data set on Hs578T [3] of 12.5 to 50 µM. In data set [4], this compound showed an IC50 of 0.5 to 3 µM.
Compound `COc1ccc2nccc(Oc3ccc(NS(=O)(=O)c4ccccc4C(F)(F)F)cc3F)c2c1` [Example 201, N-[3-Fluoro-4-(6-methoxy-quinolin-4-yloxy)-phenyl]-2-trifluoromethyl-benzenesulfonamide] gave a melting point of 168 to 169 °C. Further, in the data set on Hs578T [1], the IC50 lay in the range of 12.5 to 50 µM. Also, the IC50 in the data set with Hs578T [2] lay in the range of 10 to 25 µM. For the same compound, the IC50 with Hs578T [3] lay within 12.5 to 50 µM. This compound also returned an IC50 in data set [4] of 0.5 to 3 µM.
Consider `COc1ccc2nccc(Oc3ccc(NS(=O)(=O)c4ccccc4OC(F)(F)F)cc3F)c2c1` [Example 202, N-[3-Fluoro-4-(6-methoxy-quinolin-4-yloxy)-phenyl]-2-trifluoromethoxy-benzenesulfonamide], for which the melting point lay in the range of 175 to 176 °C. The IC50 in the data set on Hs578T [1] lay in the range of 12.5 to 50 µM. Besides, in the data set on Hs578T [2], the IC50 lay in the range of 10 to 25 µM. In the data set with Hs578T [3], this compound yielded an IC50 of 12.5 to 50 µM. In addition, the IC50 in data set [4] was in the range of 0.5 to 3 µM.
On to `COc1cc2c(Oc3ccc(NS(=O)(=O)c4cc(F)ccc4F)cc3OC)ccnc2cc1OCCCN1CCC(C)CC1` [Example 207, 2,5-Difluoro-N-(3-methoxy-4-{6-methoxy-7-[3-(4-methyl-piperidin-1-yl)-propoxy]-quinolin-4-yloxy}-phenyl)-benzenesulfonamide], for which the melting point lay within 170 to 172 °C. The IC50 in the data set on Hs578T [1] is no more than 12.5 µM. The IC50 with Hs578T [2] was 10 to 25 µM. The IC50 in the data set with Hs578T [3] was no more than 12.5 µM. The compound also returned an IC50 in data set [4] of 0.5 to 3 µM.
In the case of `COc1cc2c(Oc3ccc(NS(=O)(=O)c4ccccc4C(F)(F)F)cc3OC)ccnc2cc1OCCCN1CCC(C)CC1` [Example 208, N-(3-Methoxy-4-{6-methoxy-7-[3-(4-methyl-piperidin-1-yl)-propoxy]-quinolin-4-yloxy}-phenyl)-2-trifluoromethyl-benzenesulfonamide], the melting point was 216 to 218 °C. The IC50 with Hs578T [1] is no more than 12.5 µM. For the same compound, in the data set with Hs578T [2], the IC50 is 10 to 25 µM. Besides, in the data set on Hs578T [3], the IC50 was 12.5 to 50 µM. In data set [4], this compound showed an IC50 of less than 0.5 µM.
